Source: patent publication US8524748B2, “Heteroalkyl biphenyl antagonists of prostaglandin D2 receptors” (Panmira Pharmaceuticals, LLC, priority 2008, dated 2013)

Target: T1, human DP2 receptor (Homo sapiens, UniProt Q9Y5Y4)
T1 construct: expressed in transfected cells; membranes prepared from them
T1 sequence (Q9Y5Y4 1-395): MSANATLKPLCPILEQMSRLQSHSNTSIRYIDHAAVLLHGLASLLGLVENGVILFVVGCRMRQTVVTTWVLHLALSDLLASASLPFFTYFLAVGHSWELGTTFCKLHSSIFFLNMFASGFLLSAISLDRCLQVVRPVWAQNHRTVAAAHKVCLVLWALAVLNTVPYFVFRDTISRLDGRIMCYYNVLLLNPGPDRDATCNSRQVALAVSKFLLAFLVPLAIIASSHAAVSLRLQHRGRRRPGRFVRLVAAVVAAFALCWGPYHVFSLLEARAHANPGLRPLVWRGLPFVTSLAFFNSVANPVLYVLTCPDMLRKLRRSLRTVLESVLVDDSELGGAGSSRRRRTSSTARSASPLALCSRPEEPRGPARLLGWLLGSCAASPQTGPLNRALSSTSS
Assay: DP2/CRTH2 radioligand binding assay using [3H]PGD2
Details: membranes of HEK293 cells stably expressing recombinant human DP2; 1 nM [3H]PGD2; read-out: hDP2 IC50
Description: The ability of a compound to bind to the human DP2 receptor is assessed via a radioligand binding assay using [^3H]PGD2. HEK293 cells stably expressing recombinant human DP2 are resuspended in 10 mM Hepes, 7.4 containing 1 mM DTT, lysed and centrifuged at 75,000×g to pellet the membranes. The membranes are resuspended in 10 mM Hepes, 7.4 containing 1 mM DTT and 10% glycerol to approximately 5 mg protein/ml. Membranes (2-10 μg protein/well) are incubated in 96-well plates with 1 nM [^3H]PGD2 and test compound in Assay Buffer (50 mM Hepes, 10 mM MnCl2, 1 mM EDTA, plus or minus 0.2% human serum albumin, pH 7.4) for 60 minutes at room temperature. The reactions are terminated by rapid filtration through Whatman GF/C glass fibre filter plates. The filter plates were pre-soaked in 0.33% polythylenimine for 30 minutes at room temperature then washed in Wash Buffer (50 mM Hepes, 0.5 M NaCl pH 7.4) prior to harvesting. After harvesting, the filter plates are washed 3 times with 1 ml cold Wash Buffer then dried. Scintillant is then added to the plates and the radioactivity retained on the filters is determined on a Packard TopCount (Perkin Elmer). Specific binding is determined as total radioactive binding minus non-specific binding in the presence of 10 μM PGD2. IC50s were determined using GraphPad prism analysis of drug titration curves.

Structure (SMILES): COc1ccc(CC(=O)O)cc1-c1ccc(C(F)(F)F)cc1C[S+]([O-])c1ccccc1 (centres unmarked) [Compound 1-7, (2′-Benzenesulfinylmethyl-6-methoxy-4′-trifluoromethyl-biphenyl-3-yl)-acetic acid]
- IC50: > 10 µM

Structure (SMILES): COc1ccc(CC(=O)O)cc1-c1ccc(C(F)(F)F)cc1CSCC(F)(F)F [Compound 1-5, [6-Methoxy-2′-(2,2,2-trifluoro-ethylsulfanylmethyl)-4′-trifluoromethyl-biphenyl-3-yl]-acetic acid]
- IC50: 1 to 10 µM

Structure (SMILES): COc1ccc(CC(=O)O)cc1-c1ccc(C(F)(F)F)cc1C[S+]([O-])C(C)(C)C (centres unmarked) [Compound 1-9, [6-Methoxy-2′-(2-methyl-propane-2-sulfinylmethyl)-4′-trifluoromethyl-biphenyl-3-yl]-acetic acid]
- IC50: > 10 µM

Structure (SMILES): COc1ccc(CC(=O)O)cc1-c1ccc(C(F)(F)F)cc1CSCc1ccccc1 [Compound 1-2, (2′-Benzylsulfanylmethyl-6-methoxy-4′-trifluoromethyl-biphenyl-3-yl)-acetic acid]
- IC50: < 1 µM

Structure (SMILES): COc1ccc(CC(=O)O)cc1-c1ccc(C(F)(F)F)cc1CS(=O)(=O)Cc1ccccc1 [Compound 1-12, (6-Methoxy-2′-phenylmethanesulfonylmethyl-4′-trifluoromethyl-biphenyl-3-yl)-acetic acid]
- IC50: 1 to 10 µM

Structure (SMILES): COc1ccc(CC(=O)O)cc1-c1ccc(C(F)(F)F)cc1CSc1nnc(C)s1 [Compound 1-4, [6-Methoxy-2′-(5-methyl-[1,3,4]thiadiazol-2-ylsulfanylmethyl)-4′-trifluoromethyl-biphenyl-3-yl]-acetic acid]
- IC50: < 1 µM

Structure (SMILES): O=C(O)CCn1c2c(c3ccccc31)C[C@H](NS(=O)(=O)c1ccc(F)cc1)CC2 [Ramatroban, reference compound]
- IC50: < 1 µM

Structure (SMILES): CCN(Cc1ccccc1)C(=O)OCc1cc(C(F)(F)F)ccc1-c1cc(CC(=O)O)ccc1F [Compound 1-16, {2′-[(Benzyl-ethyl-carbamoyloxy)-methyl]-6-fluoro-4′-trifluoromethyl-biphenyl-3-yl}-acetic acid]
- IC50: < 1 µM

Structure (SMILES): COc1ccc(CC(=O)O)cc1-c1ccc(C(F)(F)F)cc1CSc1ccccc1 [Compound 1-1, (6-Methoxy-2′-phenylsulfanylmethyl-4′-trifluoromethyl-biphenyl-3-yl)-acetic acid]
- IC50: < 1 µM

Structure (SMILES): COc1ccc(CC(=O)O)cc1-c1ccc(C(F)(F)F)cc1CS(=O)(=O)C(C)(C)C [Compound 1-13, [6-Methoxy-2′-(2-methyl-propane-2-sulfonylmethyl)-4′-trifluoromethyl-biphenyl-3-yl]-acetic acid]
- IC50: > 10 µM

Structure (SMILES): COc1ccc(CC(=O)O)cc1-c1ccc(C(F)(F)F)cc1CS(=O)(=O)c1nnc(C)s1 [Compound 1-14, [6-Methoxy-2′-(5-methyl-[1,3,4]thiadiazole-2-sulfonylmethyl)-4′-trifluoromethyl-biphenyl-3-yl]-acetic acid]
- IC50: 1 to 10 µM

Structure (SMILES): CCN(Cc1ccccc1)C(=O)OCc1cc(C(F)(F)F)ccc1-c1cc(CC(=O)O)ccc1OC [Compound 1-15, {2′-[(Benzyl-ethyl-carbamoyloxy)-methyl]-6-methoxy-4′-trifluoromethyl-biphenyl-3-yl}-acetic acid]
- IC50: 1 to 10 µM

Structure (SMILES): COc1ccc(CC(=O)O)cc1-c1ccc(C(F)(F)F)cc1CSC(C)(C)C [Compound 1-3, (2′-tert-Butylsulfanylmethyl-6-methoxy-4′-trifluoromethyl-biphenyl-3-yl)-acetic acid]
- IC50: 1 to 10 µM

Structure (SMILES): COc1ccc(CC(=O)O)cc1-c1ccc(C(F)(F)F)cc1C[S+]([O-])c1nnc(C)s1 (centres unmarked) [Compound 1-10, [6-Methoxy-2′-(5-methyl-[1,3,4]thiadiazole-2-sulfinylmethyl)-4′-trifluoromethyl-biphenyl-3-yl]-acetic acid]
- IC50: > 10 µM

Structure (SMILES): COc1ccc(CC(=O)O)cc1-c1ccc(C(F)(F)F)cc1CS(=O)(=O)c1ccccc1 [Compound 1-11, (2′-Benzenesulfonylmethyl-6-methoxy-4′-trifluoromethyl-biphenyl-3-yl)-acetic acid]
- IC50: 1 to 10 µM

Structure (SMILES): COc1ccc(CC(=O)O)cc1-c1ccc(C(F)(F)F)cc1C[S+]([O-])Cc1ccccc1 (centres unmarked) [Compound 1-8, (6-Methoxy-2′-phenylmethanesulfinylmethyl-4′-trifluoromethyl-biphenyl-3-yl)-acetic acid]
- IC50: > 10 µM

Structure (SMILES): COc1ccc(CC(=O)O)cc1-c1ccc(C(F)(F)F)cc1COc1ccccc1 [Compound 1-6, (6-Methoxy-2′-phenoxymethyl-4′-trifluoromethyl-biphenyl-3-yl)-acetic acid]
- IC50: 1 to 10 µM
